Laboratory results reported in publication PMC10218498, “Exploring BenzylethoxyAryl Urea Scaffolds for Multitarget Immunomodulation Therapies” (International Journal of Molecular Sciences, 2023).
Read-outs that look alike come from different tables or passages of the source.

How the values were obtained:
Jurkat T cells = experiment: MTT cell proliferation assay, Jurkat T cells; format: cell-based; conditions: Homo sapiens, 48 h of treatment
Protocol: This assay allowed us to establish the corresponding IC50 values (expressed as the concentration, in μM, at which 50% of cell viability is achieved), shown in Table 1.
In 96-well plates, 5 × 10^3 (HT-29, MCF-7, A549, HMEC-1, Jurkat, and HEK-293) cells per well were incubated with serial dilutions of the tested compounds in a total volume of 100 μL of their respective growth media. The 3-(4,5-dimethylthiazol-2-yl)-2,5-diphenyltetrazolium bromide (MTT; Sigma Chemical Co.) dye reduction assay in 96-well microplates was used. After 2 days of incubation (37 °C, 5% CO2 in a humid atmosphere), 10 μL of MTT (5 mg/mL in phosphate-buffered saline, PBS) was added to each well, and the plate was incubated for a further 3 h (37 °C). After that, the supernatant was discarded and replaced by 100 µL of DMSO to dissolve formazan crystals. The absorbance was then read at 550 nm by spectrophotometry. For all concentrations of compound, cell viability was expressed as the percentage of the ratio between the mean absorbance of treated cells and the mean absorbance of untreated cells. Three independent experiments were performed, and the IC50 values (i.e., concentration half inhibiting cell proliferation) were graphically determined using GraphPad Prism 4 software.

THP-1 cells = experiment: Immune cell viability in monoculture and co-cultures with HT-29 by flow cytometry; format: cell-based, human; conditions: for THP-1 living cells compared to control (%), Monocult. THP-1: THP-1 monoculture, 20 μM; for THP-1 living cells compared to control (%), 1:5 HT-29/THP-1, 24 h / THP-1 living cells compared to control (%), 1:5 HT-29/THP-1, 48 h: co-culture 1:5 HT-29/THP-1, 20 μM; for THP-1 living cells compared to control (%), 2:1 HT-29/THP-1, 24 h / THP-1 living cells compared to control (%), 2:1 HT-29/THP-1, 48 h: co-culture 2:1 HT-29/THP-1, 20 μM
Protocol: From the previous study, we also determined the effect of the selected compounds on the human monocyte cells THP-1 in the described co-cultures. We also assessed the effect of the compounds on the cell viability of monocultured THP-1.
On the other hand, to study the effect of the compounds on the cell viability in co-culture with THP-1 cells, 10^5 or 2 × 10^5 of the HT-29 cells line per well were seeded and incubated for 24 h, then the medium was changed by one cell culture medium supplemented with IFN-γ (10 ng/mL; human, Invitrogen®, Waltham, MA, USA) and containing 5 × 10^5 or 105, respectively, of THP-1 per well and the corresponding compound at 20 μM or DMSO for the positive control. After 24 h/48 h of incubation, supernatants were collected to determine THP-1 living cells. Additionally, stain cancer cells were collected with trypsin. Both types of suspension cells were fixed with 4% in PBS paraformaldehyde and counted by flow cytometry.

PD-L1 = PD-L1 (Homo sapiens, UniProt Q9NZQ7); experiment: PD-L1 relative quantification by flow cytometry in HT-29; format: cell-based; design: endogenous in cells; host or cells: HT-29; conditions: 24 h; for Total PD-L1 (%): relative to DMSO control = 100; for inhibition at 20 µM: read-out: inhibition rate of PD-L1
Chain of PD-L1 (Q9NZQ7 19-290): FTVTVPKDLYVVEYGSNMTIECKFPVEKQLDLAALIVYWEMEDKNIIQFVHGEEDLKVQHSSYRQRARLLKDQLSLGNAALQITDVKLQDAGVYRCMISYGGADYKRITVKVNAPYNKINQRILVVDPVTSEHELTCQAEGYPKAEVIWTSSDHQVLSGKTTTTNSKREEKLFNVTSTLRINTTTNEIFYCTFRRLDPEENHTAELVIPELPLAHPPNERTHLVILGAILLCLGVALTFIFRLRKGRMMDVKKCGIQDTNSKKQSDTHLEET
Protocol: To assess the effect of the selected compounds on the biological targets PD-L1 and VEFGR-2, we performed the study on both cancer cell lines HT-29 and A-549 and by flow cytometry technique. […] For these assays, cells were incubated for 24 h in the presence of the corresponding compounds at 20 µM concentration.
To study the effect of the compounds on every biological target in cancer cell lines, the compounds were used at 20 µM dose.
For the assay, 10^5 cells per well were incubated for 24 h with the corresponding dose of the tested compound in a total volume of 500 μL of their growth media.
On the one hand, to detect total PD-L1 and VEGFR-2, after the cell treatments, they were collected and fixed with 4% in PBS paraformaldehyde. After fixation, a treatment with 0.5% in PBS TritonTM X-100 was performed, and finally, cells were stained with FITC Mouse monoclonal Anti-Human VEGFR-2 (ab184903) and Alexa Fluor® 647 Rabbit monoclonal Anti-PD-L1 (ab215251).
On the other hand, to detect membrane PD-L1 and VEGFR-2, the process was the same, avoiding the treatment with 0.5% in PBS TritonTM X-100 step.

Fyn = experiment: Immunoblotting of OT-1 CTL signaling proteins: FYN; format: cell-based, mice; conditions: OT-1, 20 μM, 24 h
Text: (§1) We next studied the effect of our compounds on the signaling cascade downstream of the TCR. […] However, both the expression and phosphorylation of LCK were increased in response to all compounds. The effects on ZAP70 and LAT were more complex, with opposing effects on total protein expression versus phosphorylation. Thus, all compounds modulated signaling downstream of the TCR in a manner that is likely to impact T-cell activation and activity.
(§2) CD8+ cells were obtained from the inguinal, axillary, brachial, and mesenteric lymph nodes previously collected from OT-1 mice. Lymph node cells were isolated by mashing through a […] cell strainer. Cells were resuspended in IMDM cell media at a concentration of 0.3 million cells/mL. N4 ovalbumin peptide was added at a concentration of 10 nM, and cells were incubated for 48 h at 5% CO2, 37 °C. On day 2 from recollection, cells were pelleted at 1300 rpm for 5 min and washed with PBS to remove N4 peptide. The cell pellet was resuspended in fresh IMDM media in a new flask in a 0.3 million cells/mL and supplemented with IL-2 at 20 ng/mL. After incubation for a further 48 h (day 4), cells were re-seeded in fresh IMDM media at a concentration of 0.3 million cells/mL supplemented with IL-2 at 20 ng/mL. Cells were cultured for a further 48 h prior to use on day 6 in functional assays.
(§3) To study the effect of the compounds in the signaling pathway of CTLs, the compound was incubated for 24 h at 20 μM. After this time, cells were collected and washed twice in PBS and lysed in radioimmunoprecipitation assay (RIPA) lysis buffer (50 mM tris-HCl at pH 7.4, 150 mM sodium chloride, 5 mM EGTA, 0.1% SDS, 1% NP-40, and 1% deoxycholate) supplemented with a protease and phosphatase inhibitor cocktail (mini complete ULTRA Protease tablet and phosSTOP tablet from Roche, Basel, Switzerland). Lysates were clarified by high-speed centrifugation (17,000 rpm for 15 min at 4 °C). Protein concentration was measured using a Micro BCA Protein Assay (Thermo Scientific, Waltham, MA, USA), and 10 μg to 30 μg of total protein were supplemented with 2X SDS sample buffer [tris (pH 6.8), 20% glycerol, 5% SDS, b-mercaptoethanol, and bromophenol blue) and boiled at 95 °C for 5 min. […] Bound Ab was detected by incubation with anti-rabbit and anti-mouse horseradish peroxidase secondary Ab (Cell Signaling Technology) and visualized using the Bio-Rad ChemiDoc MP Imaging System.

ZAP70 = experiment: Immunoblotting of OT-1 CTL signaling proteins: ZAP70; format: cell-based, mice; conditions: OT-1, 20 μM, 24 h
Text: as §1, §2, §3

LAT = experiment: Immunoblotting of OT-1 CTL signaling proteins: LAT; format: cell-based, mice; conditions: OT-1, 20 μM, 24 h
Text: as §1, §2, §3

Row | Structure (SMILES) | IC50 (Jurkat T cells) [µM] | THP-1 living cells compared to control (%), Monocult. THP-1 (THP-1 cells) [%] | THP-1 living cells compared to control (%), 1:5 HT-29/THP-1, 24 h (THP-1 cells) [%] | THP-1 living cells compared to control (%), 1:5 HT-29/THP-1, 48 h (THP-1 cells) [%] | THP-1 living cells compared to control (%), 2:1 HT-29/THP-1, 24 h (THP-1 cells) [%] | THP-1 living cells compared to control (%), 2:1 HT-29/THP-1, 48 h (THP-1 cells) [%] | Total PD-L1 (%) (PD-L1; HT-29, 20 µM) | inhibition at 20 µM (PD-L1; HT-29, HT-29, 20 µM) [%] | FYN protein expression (Western blot quantification) (Fyn) | ZAP-70 protein expression (Western blot quantification) (ZAP70) | pZAP-70 protein expression (Western blot quantification) (ZAP70) | LAT protein expression (Western blot quantification) (LAT) | pLAT protein expression (Western blot quantification) (LAT) | inhibition rate of PD-L1 (PD-L1; HT-29, 20 µM) | inhibition at 20 µM (PD-L1; HT-29, 20 µM) [%]
1 | Cc1c(COc2ccc(CN3CCCCC3C(=O)O)cc2Br)cccc1-c1ccccc1 (stereo not drawn) [BMS-8, reference compound] | > 100 | 99 ± 2 | 94 ± 0 | 93 ± 0 | 101 ± 9 | 97 ± 2 | 82 ± 21 | – | – | – | – | – | – | – | –
2 | COc1ccc(COc2cccc(NC(=O)Nc3ccc(F)cc3)c2)cc1 [Compound 2] | > 100 | 111 ± 13 | 97 ± 7 | 105 ± 4 | 90 ± 28 | 105 ± 1 | 71 ± 15 | ~50 | 101 | 34 | 88 | 63 | – | – | –
3 | COc1ccc(COc2cccc(NC(=O)Nc3ccc(Br)cc3)c2)cc1 [Compound 8] | > 100 | 98 ± 10 | 95 ± 12 | 100 ± 11 | 82 ± 14 | 97 ± 9 | 40 ± 2 | ~60 | – | 37 | 74 | 88 | 8 | – | –
4 | COc1ccc(COc2cccc(NC(=O)Nc3ccc(OC)cc3)c2)cc1 [Compound 11] | > 100 | 103 ± 7 | 105 ± 4 | 94 ± 9 | 66 ± 24 | 102 ± 5 | 118 ± 3 | – | 109 | 38 | 77 | 85 | 10 | no inhibitory effect | –
5 | COc1ccc(COc2cccc(NC(=O)Oc3ccccc3)c2)cc1 [Compound 14] | > 100 | 127 ± 12 | 93 ± 9 | 97 ± 9 | 81 ± 6 | 109 ± 2 | 68 ± 5 | – | 102 | 54 | 108 | 103 | 21 | – | ~40
